In ChEMBL document CHEMBL4311982, “Discovery of novel, potent, isosteviol-based antithrombotic agents” (Eur J Med Chem, 2019):

Experiments:
[1] = Half life in Wistar rat at 6.6 umol/kg, iv measured upto 24 hrs by LC-MS/MS analysis; format: ADME, organism-based; settings: in vivo
Rattus norvegicus [2] = species: Rattus norvegicus; also: test concentration or dose not given here
[3] = Half life in Wistar rat at 22 umol/kg, po measured upto 24 hrs by LC-MS/MS analysis; format: ADME, organism-based; settings: in vivo
[4] = Oral bioavailability in Wistar rat at 22 umol/kg measured upto 24 hrs by LC-MS/MS analysis; format: ADME, organism-based; settings: in vivo
Rattus norvegicus [5] = species: Rattus norvegicus; remark: listed apart in the source; also: test concentration or dose not given here
[6] = MRT in Wistar rat at 6.6 umol/kg, iv measured upto 24 hrs by LC-MS/MS analysis; format: ADME, organism-based; settings: in vivo
[7] = MRT in Wistar rat at 22 umol/kg, po measured upto 24 hrs by LC-MS/MS analysis; format: ADME, organism-based; settings: in vivo
[8] = Volume of distribution in Wistar rat at 6.6 umol/kg, iv measured upto 24 hrs by LC-MS/MS analysis; format: ADME, organism-based; settings: in vivo
[9] = Volume of distribution in Wistar rat at 22 umol/kg, po measured upto 24 hrs by LC-MS/MS analysis; format: ADME, organism-based; settings: in vivo
[10] = Clearance in Wistar rat at 6.6 umol/kg, iv measured upto 24 hrs by LC-MS/MS analysis; format: ADME, organism-based; settings: in vivo
[11] = Cmax in Wistar rat at 22 umol/kg, po measured upto 24 hrs by LC-MS/MS analysis; format: ADME, organism-based; parameters: dose 22 umol/kg, route oral; settings: in vivo
[12] = AUC (0 to infinity) in Wistar rat at 22 umol/kg, po measured upto 24 hrs by LC-MS/MS analysis; format: ADME, organism-based; parameters: dose 22 umol/kg, time infinity, route oral; settings: in vivo
Rattus norvegicus [13] = species: Rattus norvegicus; remark: listed apart in the source; also: test concentration or dose not given here
[14] = Clearance in Wistar rat at 22 umol/kg, po measured upto 24 hrs by LC-MS/MS analysis; format: ADME, organism-based; settings: in vivo
[15] = AUC (0 to infinity) in Wistar rat at 6.6 umol/kg, iv measured upto 24 hrs by LC-MS/MS analysis; format: ADME, organism-based; parameters: dose 6.6 umol/kg, time infinity, route intravenous; settings: in vivo
Trypsin = Trypsin (Homo sapiens, UniProt P07477+P07478+P35030); experiment: Inhibition of human trypsin using S-2222 as substrate incubated for 15 mins followed by substrate addition and measured after 1 hr by chromogenic assay; format: protein assay
Coagulation factor XII = target: T1, Coagulation factor XII (Homo sapiens, UniProt P00748); experiment: Inhibition of human activated Factor XII using spectrozyme F XIIa as substrate incubated for 15 mins followed by substrate addition and measured after 1 hr by chromogenic assay
T1 sequence (P00748 whole entry): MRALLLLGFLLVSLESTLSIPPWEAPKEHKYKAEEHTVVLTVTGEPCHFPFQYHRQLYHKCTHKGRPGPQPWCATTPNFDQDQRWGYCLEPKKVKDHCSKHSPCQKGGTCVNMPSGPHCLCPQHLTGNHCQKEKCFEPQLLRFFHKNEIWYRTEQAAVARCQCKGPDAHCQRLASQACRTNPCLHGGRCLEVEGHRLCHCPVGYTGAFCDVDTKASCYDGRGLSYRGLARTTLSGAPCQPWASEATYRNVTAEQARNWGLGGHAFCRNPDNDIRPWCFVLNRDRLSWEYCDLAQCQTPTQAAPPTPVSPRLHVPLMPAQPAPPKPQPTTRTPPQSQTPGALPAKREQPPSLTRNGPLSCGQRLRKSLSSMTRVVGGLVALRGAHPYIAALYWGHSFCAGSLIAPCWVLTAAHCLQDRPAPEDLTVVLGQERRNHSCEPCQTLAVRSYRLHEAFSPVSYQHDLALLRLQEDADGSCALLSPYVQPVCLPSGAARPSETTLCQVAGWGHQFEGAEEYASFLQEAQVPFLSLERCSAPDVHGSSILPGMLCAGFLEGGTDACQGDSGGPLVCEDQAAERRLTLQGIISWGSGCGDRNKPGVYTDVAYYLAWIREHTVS

Coagulation factor IX = Coagulation factor IX (Homo sapiens, UniProt P00740); experiment: Inhibition of human activated Factor IX using spectrozyme F IXa as substrate incubated for 15 mins followed by substrate addition and measured after 1 hr by chromogenic assay
Coagulation factor XI = Coagulation factor XI (Homo sapiens, UniProt P03951); experiment: Inhibition of human activated Factor XI using S-2366 as substrate incubated for 15 mins followed by substrate addition and measured after 1 hr by chromogenic assay
Coagulation factor VII = target: T2, Coagulation factor VII (Homo sapiens, UniProt P08709); experiment: Inhibition of human activated Factor VII using S-2288 as substrate incubated for 15 mins followed by substrate addition and measured after 1 hr by chromogenic assay
T2 sequence (P08709 whole entry): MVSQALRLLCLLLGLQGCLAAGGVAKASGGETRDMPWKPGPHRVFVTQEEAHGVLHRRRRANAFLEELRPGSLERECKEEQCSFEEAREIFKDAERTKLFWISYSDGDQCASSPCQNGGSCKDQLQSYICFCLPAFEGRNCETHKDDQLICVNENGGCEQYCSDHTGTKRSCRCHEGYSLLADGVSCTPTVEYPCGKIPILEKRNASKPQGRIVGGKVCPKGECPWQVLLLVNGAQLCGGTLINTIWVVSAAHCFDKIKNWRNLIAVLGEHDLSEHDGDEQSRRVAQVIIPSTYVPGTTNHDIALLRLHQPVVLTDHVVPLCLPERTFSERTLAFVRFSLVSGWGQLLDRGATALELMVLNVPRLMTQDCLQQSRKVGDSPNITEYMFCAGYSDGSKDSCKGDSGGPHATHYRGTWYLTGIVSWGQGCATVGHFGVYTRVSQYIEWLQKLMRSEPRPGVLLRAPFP

[16] = target: Tissue-type plasminogen activator (Homo sapiens, UniProt P00750); experiment: Inhibition of human tPA using […] tPA substrate incubated for 15 mins followed by substrate addition and measured after 1 hr by chromogenic assay
Plasma kallikrein = Plasma kallikrein (Homo sapiens, UniProt P03952); experiment: Inhibition of human kallikrein using S-2302 as substrate incubated for 15 mins followed by substrate addition and measured after 1 hr by chromogenic assay
[17] = target: Urokinase-type plasminogen activator (Homo sapiens, UniProt P00749); experiment: Inhibition of human uPA using […] uPA substrate incubated for 15 mins followed by substrate addition and measured after 1 hr by chromogenic assay
Coagulation factor X = Coagulation factor X (Homo sapiens, UniProt P00742); experiment: Inhibition of human activated Factor X using S-2765 as substrate incubated for 15 mins followed by substrate addition and measured after 1 hr by chromogenic assay
[18] = target: Chymotrypsin (Rattus norvegicus); experiment: Inhibition of rat chymotrypsin using S-2586 as substrate incubated for 15 mins followed by substrate addition and measured after 1 hr by chromogenic assay

Chain of Plasma kallikrein (P03952 20-390 limits assumed): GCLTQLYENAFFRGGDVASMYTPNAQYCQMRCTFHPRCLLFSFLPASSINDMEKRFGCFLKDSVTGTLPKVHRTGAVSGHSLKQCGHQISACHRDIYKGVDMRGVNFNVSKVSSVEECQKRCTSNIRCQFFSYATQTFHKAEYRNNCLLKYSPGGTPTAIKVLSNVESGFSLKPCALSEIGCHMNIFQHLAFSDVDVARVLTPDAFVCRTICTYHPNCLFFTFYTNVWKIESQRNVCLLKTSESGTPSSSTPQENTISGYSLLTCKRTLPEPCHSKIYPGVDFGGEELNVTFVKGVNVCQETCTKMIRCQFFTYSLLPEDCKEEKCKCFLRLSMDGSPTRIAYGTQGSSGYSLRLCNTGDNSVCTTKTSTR
Chain of Plasma kallikrein (P03952 391-638 limits assumed): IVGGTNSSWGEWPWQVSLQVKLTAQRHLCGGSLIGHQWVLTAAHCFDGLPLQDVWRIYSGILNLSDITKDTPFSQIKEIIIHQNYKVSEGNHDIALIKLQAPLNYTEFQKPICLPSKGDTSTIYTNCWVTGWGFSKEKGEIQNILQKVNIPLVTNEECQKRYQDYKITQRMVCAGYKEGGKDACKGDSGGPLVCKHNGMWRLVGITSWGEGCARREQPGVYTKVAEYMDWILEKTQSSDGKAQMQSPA
Chain of Coagulation factor IX (P00740 47-191 limits assumed): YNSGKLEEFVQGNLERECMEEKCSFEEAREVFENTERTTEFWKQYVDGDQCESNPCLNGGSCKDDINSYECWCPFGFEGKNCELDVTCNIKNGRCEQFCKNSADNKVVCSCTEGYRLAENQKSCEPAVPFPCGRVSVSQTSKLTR
Chain of Coagulation factor IX (P00740 227-461 limits assumed): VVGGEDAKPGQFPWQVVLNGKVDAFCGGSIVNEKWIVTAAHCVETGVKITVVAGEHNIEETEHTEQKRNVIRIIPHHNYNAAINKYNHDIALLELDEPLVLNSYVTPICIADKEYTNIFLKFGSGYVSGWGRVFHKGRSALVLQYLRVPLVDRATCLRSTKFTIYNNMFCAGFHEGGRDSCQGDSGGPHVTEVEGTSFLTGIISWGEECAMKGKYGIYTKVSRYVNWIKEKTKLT
Chain of Coagulation factor XI (P03951 19-387 limits assumed): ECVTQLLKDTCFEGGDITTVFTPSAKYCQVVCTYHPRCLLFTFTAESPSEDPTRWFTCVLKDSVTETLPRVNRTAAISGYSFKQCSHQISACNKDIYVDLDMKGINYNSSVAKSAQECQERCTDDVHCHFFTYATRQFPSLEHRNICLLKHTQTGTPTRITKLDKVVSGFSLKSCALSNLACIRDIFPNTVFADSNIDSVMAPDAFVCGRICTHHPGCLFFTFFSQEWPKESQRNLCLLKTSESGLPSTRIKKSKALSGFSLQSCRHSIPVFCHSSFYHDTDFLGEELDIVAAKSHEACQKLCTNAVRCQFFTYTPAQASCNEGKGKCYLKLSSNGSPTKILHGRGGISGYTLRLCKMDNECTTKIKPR
Chain of Coagulation factor XI (P03951 388-625 limits assumed): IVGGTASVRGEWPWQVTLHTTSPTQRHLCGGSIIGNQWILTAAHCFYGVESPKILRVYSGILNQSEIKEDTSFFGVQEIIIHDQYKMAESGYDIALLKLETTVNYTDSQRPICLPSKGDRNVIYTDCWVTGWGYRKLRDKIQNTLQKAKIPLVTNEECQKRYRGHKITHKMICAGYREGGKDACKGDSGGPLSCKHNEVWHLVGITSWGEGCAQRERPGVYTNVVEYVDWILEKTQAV
Chain of Coagulation factor X (P00742 41-179 limits assumed): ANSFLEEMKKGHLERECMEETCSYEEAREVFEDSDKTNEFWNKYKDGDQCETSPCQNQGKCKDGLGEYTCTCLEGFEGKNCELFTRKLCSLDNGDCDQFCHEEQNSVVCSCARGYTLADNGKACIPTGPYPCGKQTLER
Chain of Coagulation factor X (P00742 235-488 limits assumed): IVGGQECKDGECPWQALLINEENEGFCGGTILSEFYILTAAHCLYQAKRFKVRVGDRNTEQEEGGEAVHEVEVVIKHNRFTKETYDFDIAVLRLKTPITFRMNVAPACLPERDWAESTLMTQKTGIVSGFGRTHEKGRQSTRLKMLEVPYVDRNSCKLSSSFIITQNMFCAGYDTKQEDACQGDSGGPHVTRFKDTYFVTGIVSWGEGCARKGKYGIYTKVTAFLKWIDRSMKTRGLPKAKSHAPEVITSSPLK
Chain of Tissue-type plasminogen activator (P00750 whole entry): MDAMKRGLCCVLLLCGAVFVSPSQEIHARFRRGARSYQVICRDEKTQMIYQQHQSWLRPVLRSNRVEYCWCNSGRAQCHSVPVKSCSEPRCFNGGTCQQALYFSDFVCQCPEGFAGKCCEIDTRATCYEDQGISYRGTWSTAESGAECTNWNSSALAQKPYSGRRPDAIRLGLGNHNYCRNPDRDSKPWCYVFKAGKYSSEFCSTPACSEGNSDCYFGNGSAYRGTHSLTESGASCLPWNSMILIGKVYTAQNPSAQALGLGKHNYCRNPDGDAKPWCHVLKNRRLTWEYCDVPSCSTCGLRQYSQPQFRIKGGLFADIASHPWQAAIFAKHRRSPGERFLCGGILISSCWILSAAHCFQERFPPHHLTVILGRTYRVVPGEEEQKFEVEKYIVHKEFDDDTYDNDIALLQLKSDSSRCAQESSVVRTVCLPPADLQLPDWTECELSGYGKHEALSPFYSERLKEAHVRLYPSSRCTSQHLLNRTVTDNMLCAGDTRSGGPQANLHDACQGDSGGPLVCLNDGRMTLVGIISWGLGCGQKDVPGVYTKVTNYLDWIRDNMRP

Structure (SMILES): O=C(NC[C@H]1CN(c2ccc(N3CCOCC3=O)cc2)C(=O)O1)c1ccc(Cl)s1 [RIVAROXABAN]
- half-life [1]: 4.4 h
- TT (Rattus norvegicus [2]): 23.4 min
- half-life [3]: 3.7 h
- bioavailability [4]: 59.7%
- PT (Rattus norvegicus [5]): 19.5 s
- MRT [6]: 6.3 h
- MRT [7]: 5.4 h
- Vd [8]: 5.5 L
- Vd [9]: 8.1 L
- clearance [10]: 15 mL/min
- Cmax [11]: 1580 ng/mL
- AUC(0-inf) [12]: 6980 ng·h/mL
- APTT (Rattus norvegicus [13]): 21.9 s
- CL/F [14]: 25 mL/min
- AUC(0-inf) [15]: 3510 ng·h/mL

Structure (SMILES): CCOC(=O)[C@]1(C)CCC[C@@]2(C)[C@@H]3CC[C@@]4(C)C[C@]3(CC[C@@H]21)C/C4=N\OCc1ccsc1
- half-life [1]: 3.2 h
- TT (Rattus norvegicus [2]): 25.5 min
- half-life [3]: 3.9 h
- Ki (Trypsin): 2.13 µM
- Ki (Coagulation factor XII): 9.29 µM
- bioavailability [4]: 48.6%
- PT (Rattus norvegicus [5]): 19.1 s
- Ki (Coagulation factor IX): 19.7 µM
- MRT [6]: 4.6 h
- MRT [7]: 4.1 h
- Vd [8]: 4 L
- Vd [9]: 10.2 L
- Ki (Coagulation factor XI): 1.7 µM
- clearance [10]: 15 mL/min
- Cmax [11]: 1250 ng/mL
- Ki (Coagulation factor VII): 11.6 µM
- Ki [16]: 3.53 µM
- AUC(0-inf) [12]: 5530 ng·h/mL
- Ki (Plasma kallikrein): 2.21 µM
- APTT (Rattus norvegicus [13]): 21.3 s
- Ki [17]: 4.43 µM
- CL/F [14]: 30 mL/min
- AUC(0-inf) [15]: 3410 ng·h/mL
- Ki (Coagulation factor X): 0.015 µM
- Ki [18]: 16.262 µM

Structure (SMILES): CCOC(=O)[C@]1(C)CCC[C@@]2(C)[C@@H]3CC[C@@]4(C)C[C@]3(CC[C@@H]21)C/C4=N\OCC1(C)COC1
- half-life [1]: 3.4 h
- TT (Rattus norvegicus [2]): 22 min
- half-life [3]: 4.2 h
- Ki (Trypsin): 0.331 µM
- Ki (Coagulation factor XII): 7.64 µM
- bioavailability [4]: 42.7%
- PT (Rattus norvegicus [5]): 18.2 s
- Ki (Coagulation factor IX): 4.76 µM
- MRT [6]: 4.9 h
- MRT [7]: 5.6 h
- Vd [8]: 4.3 L
- Vd [9]: 12.5 L
- Ki (Coagulation factor XI): 1.94 µM
- clearance [10]: 15 mL/min
- Cmax [11]: 728 ng/mL
- Ki (Coagulation factor VII): 7.99 µM
- Ki [16]: 2.83 µM
- AUC(0-inf) [12]: 4810 ng·h/mL
- Ki (Plasma kallikrein): 0.277 µM
- APTT (Rattus norvegicus [13]): 20.6 s
- Ki [17]: 2.03 µM
- CL/F [14]: 35 mL/min
- AUC(0-inf) [15]: 3380 ng·h/mL
- Ki (Coagulation factor X): 0.028 µM
- Ki [18]: 12.378 µM
